Laboratory results reported in article PMC8494816 (Scientific Reports, 2021).

What was measured:
[1] = test system: patients with RUCC; conditions: cited from earlier work; for efficacy in treating RUCC patients: phase IIa setting
[2] = biological target: P2X2/3 heterotrimeric receptors; design: method as in PMID 30902655; conditions: cited from earlier work
[3] = test system: animal models; design: method as in PMID 30902655; conditions: cited from earlier work
[4] = biological target: P2X3 homotrimeric receptors; design: method as in PMID 30902655; conditions: cited from earlier work
[5] = Half-life in humans; conditions: human, in vivo; data not shown
[6] = biological target: T1, rP2X3 receptors (Rattus norvegicus, UniProt P49654); assay: cell-based
T1 sequence (P49654 1-397): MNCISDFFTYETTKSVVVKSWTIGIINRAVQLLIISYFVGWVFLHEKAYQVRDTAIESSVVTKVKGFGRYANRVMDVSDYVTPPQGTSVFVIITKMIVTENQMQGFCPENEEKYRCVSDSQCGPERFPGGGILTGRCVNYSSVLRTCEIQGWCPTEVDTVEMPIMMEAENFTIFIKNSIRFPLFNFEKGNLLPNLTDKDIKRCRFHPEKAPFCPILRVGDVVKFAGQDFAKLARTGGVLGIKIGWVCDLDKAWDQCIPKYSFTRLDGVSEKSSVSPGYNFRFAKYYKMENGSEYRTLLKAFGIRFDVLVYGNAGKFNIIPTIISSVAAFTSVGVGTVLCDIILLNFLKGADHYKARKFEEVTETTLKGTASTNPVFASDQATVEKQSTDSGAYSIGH
Description: (§1) Cells were maintained in Dulbecco’s Modified Eagle Medium (DMEM) media (Sigma) supplemented with 10% fetal bovine serum (FBS) (Sigma) in a humidified incubator with 5% CO2 at 37 °C.
(§2) P2X receptor-induced changes in intracellular calcium levels were monitored using the calcium-chelating dye, Fluo-4AM (Molecular Probes), quantitated with a fluorescence imaging plate reader (FLEX/FLIPR station; Molecular Devices, Sunnyvale, CA, USA). Cells expressing P2X3 or P2X2/3 receptors were plated at a density of 15,000 cells/well in collagen-coated 384-well plates approximately 20 h before assay.

[7] = biological target: T2, rP2X2/3 receptors (Rattus norvegicus, UniProt P49653+P49654); assay: FLIPR calcium flux assay, recombinant cells; format: cell-based
T2 sequence (P49654 1-397): T1 sequence (P49654 1-397)
T2 sequence (P49653 1-472): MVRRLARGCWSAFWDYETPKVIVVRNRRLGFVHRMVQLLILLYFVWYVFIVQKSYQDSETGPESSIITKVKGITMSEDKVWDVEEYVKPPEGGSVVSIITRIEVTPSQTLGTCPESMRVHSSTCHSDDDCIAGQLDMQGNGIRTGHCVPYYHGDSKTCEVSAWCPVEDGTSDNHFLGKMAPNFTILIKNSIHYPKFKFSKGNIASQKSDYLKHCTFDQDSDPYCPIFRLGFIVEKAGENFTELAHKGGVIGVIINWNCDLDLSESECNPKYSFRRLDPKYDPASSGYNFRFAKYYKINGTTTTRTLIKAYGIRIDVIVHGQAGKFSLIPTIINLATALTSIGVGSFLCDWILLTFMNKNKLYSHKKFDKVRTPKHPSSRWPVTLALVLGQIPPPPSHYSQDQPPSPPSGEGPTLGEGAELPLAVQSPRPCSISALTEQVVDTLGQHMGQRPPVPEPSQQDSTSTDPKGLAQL
Description: as §1, §2

[8] = biological target: T3, hP2X1 receptors (Homo sapiens, UniProt P51575); assay: Recombinant cell line selectivity assay
T3 sequence (P51575 1-399): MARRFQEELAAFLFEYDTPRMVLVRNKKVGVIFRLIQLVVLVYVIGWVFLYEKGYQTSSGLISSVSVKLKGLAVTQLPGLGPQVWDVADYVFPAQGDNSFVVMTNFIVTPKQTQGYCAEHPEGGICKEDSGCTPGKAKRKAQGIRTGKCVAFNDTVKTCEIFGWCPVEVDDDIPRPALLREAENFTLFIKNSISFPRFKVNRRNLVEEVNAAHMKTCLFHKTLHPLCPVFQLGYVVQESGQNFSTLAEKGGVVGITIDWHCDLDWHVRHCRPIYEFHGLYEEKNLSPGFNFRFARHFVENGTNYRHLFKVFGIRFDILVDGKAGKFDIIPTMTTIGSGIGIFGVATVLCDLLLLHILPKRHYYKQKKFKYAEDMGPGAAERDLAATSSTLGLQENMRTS

[9] = test system: CFA-induced hyperalgesia in female C57BL/6 mice; assay: Mouse CFA-induced mechanical hyperalgesia model (von Frey); conditions: oral twice daily, 48 h after CFA
Description: In this model, mechanical hyperalgesia was induced in female C57BL/6 mice (n = 9) by injecting CFA into the plantar surface of one hind paw and assessed using von Frey filaments. The filaments were used to stimulate the hind paw, and a behavioral response was measured depending on the strength of the von Frey filament used (expressed in [g]). […] Compounds were administered orally, twice daily, starting one hour before CFA injection. […] Mechanical hyperalgesia was induced in female C57BL/6 mice by injecting 30 µL of undiluted CFA into the medial left plantar hind paw. […] Mice were placed individually in transparent Plexiglas enclosures set on a wire mesh floor for at least 60 min prior to testing. Mechanical response thresholds were determined using calibrated von Frey monofilaments applied to the plantar surface of hind paws. The simplified up-down method[69] was used to estimate the 50% withdrawal threshold of contralateral and ipsilateral paws. […] All dose formulations were letter coded and administered to the animals by a technician not involved in conducting the behavioral von Frey testing. All von Frey measurements were performed by a second experimenter who was blinded to the treatments received by the animals. Upon completion of the experiments, mice were euthanized by exposure to carbon dioxide.

[10] = Half-life in rats; conditions: rat, in vivo; data not shown
[11] = biological target: T4, native channels from DRG (predominately P2X3 receptors) (Rattus norvegicus, UniProt P49654); assay: Whole-cell patch-clamp assay in rat neurons (DRG); format: cell-based; conditions: female Sprague Dawley rat neurons, α,β-meATP 10 µM
T4 construct: native channels from both DRG (predominately P2X3 receptors) and nodose ganglia (NDG, predominately P2X2/3 receptors) rat tissues; from tissue; host or cells: primary neurons from dorsal root ganglia (L6–L4) of female Sprague Dawley rats
T4 sequence (P49654 1-397): T1 sequence (P49654 1-397)
Description: Experiments were performed under the whole-cell patch-clamp configuration at a holding potential of – 80 mV at room temperature. […] The cells were dissociated with Accumax, centrifuged at 1000 rpm for 3 min, re-suspended in manual patch-clamp buffer, and then plated in dishes at a density of ~ 50,000 cells/dish. The currents were recorded using HEKA amplifiers and Patchmaster software (HEKA Electronics). The bath solution contained 140 mM NaCl, 5 mM KCl, 1 mM CaCl2, 2 mM MgCl2, 25 mM HEPES, and 10 mM glucose, at pH 7.4. The intracellular solution contained 140 mM CsCl, 10 mM HEPES, and 10 mM BAPTA, at pH 7.0. […] The recordings were performed in a cumulative manner with 4- or 8-min incubation times per compound concentration. Hexokinase (50 U/mL) was added to reduce channel desensitization when recording human and rat P2X3 receptor neurons. A seal resistance of minimum 250 MΩ and a series resistance of less than 20 MΩ were applied as quality control parameters. The effect at each concentration of antagonist was determined according to the following equation: % response = (100 * Idrug)/Icontrol), where Icontrol was the peak current amplitude of the last agonist addition prior to incubation with the antagonist, and Idrug was the peak current amplitude in the presence of an antagonist. Each concentration of antagonist was tested on a minimum of three independent cells. […]

[12] = test system: vaginal hyperalgesia in female Sprague Dawley rats; assay: Rat dyspareunia model (VMR to vaginal distension); conditions: vs vehicle
Description: The visceromotor response (VMR) to vaginal distension using an inflated vaginal balloon was determined by counting the number of abdominal muscle contractions via electromyography (EMG) in conscious animals as an objective measure of vaginal sensitivity. […] The VMR response to vaginal distension was measured at week five (on-drug) and week six (one week off-drug) post-implantation of uterine horn pieces.
The VMR to vaginal distension was used in conscious animals as an objective measure of vaginal sensitivity. […] In addition, to measure the VMR response, two Teflon-coated wire electrodes (AS632; Cooner Wire, USA) were sutured in the external oblique abdominal muscle, and then tunneled subcutaneously to be exteriorized at the base of the neck for future access. […] On the day of VMR assessment, a lubricated small balloon (embolectomy catheter 5F, 1 cm in length; IsoMed, France) was inserted into the mid-vaginal canal. […] The magnitude of the VMR at each vaginal distension test was quantified by counting manually the number of EMG spike bursts (or abdominal muscle contractions) per period of 40 s (= 0.1 mL distension volume). […] For each animal, the cumulative number of abdominal contractions was calculated and plotted against vaginal distension volume, and the corresponding AUC was calculated. […]
All data are expressed as mean (or mean ± SD), unless otherwise indicated.

[13] = test system: neurogenic plasma extravasation in female Sprague Dawley rats; assay: Rat model of uterine neurogenic inflammation (mustard oil, Evans blue); format: in vivo; conditions: i.v. bolus 0.7 mg/kg then infusion 0.2 mg/kg/h, vs vehicle, P < 0.01
Description: In this model, neurogenic inflammation was induced in anesthetized female Sprague Dawley rats by injecting mustard oil, an algogenic and sensitizing irritant, into the left uterine horn. Uterine inflammation leads to neurogenic plasma extravasation in the skin of the lower abdomen, which can be visualized via the injection of Evans blue dye[17]; the degree of inflammation can then be quantified by counting the number of blue dots.
Mustard oil (10% solution in mineral oil) was then injected into the left uterine horn (0.25 mL/rat), and 2-h later, Evans blue was injected intravenously. After 30 min, animals were killed by cardiac flushing with sterile saline. Uterine neurogenic inflammation was assessed by counting the number of blue dots on the ventral and dorsal sides in the abdominal region as an indicator of cutaneous neurogenic plasma extravasation following chemical uterine inflammation, as previously described[17].
All data are expressed as mean (or mean ± SD), unless otherwise indicated. Data were analyzed with either GraphPad Prism (v6.03, https://www.graphpad.com/scientific-software/prism/) or the Excel Fit software. […] For the rat neurogenic inflammation and dyspareunia models, data were analyzed by computing the mean number of skin dots or AUCs, respectively, for each treatment group and at each time point of the study (where appropriate). […]

[14] = test system: CFA-induced mechanical hyperalgesia in male Sprague Dawley rats; assay: Rat CFA-induced mechanical hyperalgesia model (PAM, paw withdrawal threshold)
Description: Mechanical hyperalgesia was induced in 32 healthy male Sprague Dawley rats by injecting 25 µL of CFA (1 mg/mL) unilateral into the plantar surface of one hind paw. Mechanical hyperalgesia was measured using the Pressure Application Measurement apparatus (Ugo Basile, Comerio, Italy). Briefly, a linearly increasing pressure was applied to an area of ~ 50 mm^2 of the plantar side of the hind paw until a behavioral response (paw withdrawal) was observed, or until the pressure reached 1000-g force. The pressure at which the behavioral response occurred was recorded as the PWT. Both CFA-injected and contralateral PWTs were determined for each rat, in each treatment group, and at each time point of the study. […] All dose formulations were letter coded and administered to the animals by one technician not involved in conducting the behavioral PAM testing. All PAM measurements were performed by a second technician who was blinded to the treatments received by the animals.
All data are expressed as mean (or mean ± SD), unless otherwise indicated. Data were analyzed with either GraphPad Prism (v6.03, https://www.graphpad.com/scientific-software/prism/) or the Excel Fit software. For the rat hyperalgesia model, data were analyzed by computing the mean PWT for each treatment group, for CFA-injected and non-injected hind paws, and at each time point of the study. Mechanical hyperalgesia in vehicle control group was evaluated by carrying out an unpaired t-test between ipsilateral and contralateral paw values at each time point. The effect of the test compound on hyperalgesia was evaluated by performing a two-way repeated measures-ANOVA on ipsilateral paw values, followed by a Dunnett’s post-hoc test, provided that a main effect for treatment was detected. The effect of the test compound on contralateral response was evaluated following the same statistical procedure. […] A Grubbs’ test was also performed on individual values to reveal potential outliers. A p-value of < 0.05 was considered statistically significant.

[15] = biological target: T5, homotrimeric hP2X7 receptor (Homo sapiens, UniProt Q99572); assay: Recombinant cell line selectivity assay
T5 sequence (Q99572 1-595): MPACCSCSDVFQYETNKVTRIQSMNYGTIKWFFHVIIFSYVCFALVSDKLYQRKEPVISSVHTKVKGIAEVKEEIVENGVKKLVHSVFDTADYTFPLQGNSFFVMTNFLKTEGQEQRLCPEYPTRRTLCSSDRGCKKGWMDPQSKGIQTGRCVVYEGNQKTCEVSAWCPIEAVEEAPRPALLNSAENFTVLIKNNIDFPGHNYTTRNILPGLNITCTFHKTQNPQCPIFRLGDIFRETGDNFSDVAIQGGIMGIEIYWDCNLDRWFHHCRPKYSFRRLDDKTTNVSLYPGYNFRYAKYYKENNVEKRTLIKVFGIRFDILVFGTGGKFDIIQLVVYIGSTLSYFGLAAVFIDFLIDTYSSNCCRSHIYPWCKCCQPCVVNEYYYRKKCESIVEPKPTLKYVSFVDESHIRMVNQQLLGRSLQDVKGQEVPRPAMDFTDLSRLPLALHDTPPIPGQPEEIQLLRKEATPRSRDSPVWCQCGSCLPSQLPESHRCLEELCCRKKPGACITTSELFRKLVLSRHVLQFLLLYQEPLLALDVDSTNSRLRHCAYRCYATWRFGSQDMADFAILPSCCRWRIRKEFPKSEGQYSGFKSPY

[16] = biological target: T6, homotrimeric hP2X4 receptor (Homo sapiens, UniProt Q99571); assay: Recombinant cell line selectivity assay
T6 sequence (Q99571 1-388): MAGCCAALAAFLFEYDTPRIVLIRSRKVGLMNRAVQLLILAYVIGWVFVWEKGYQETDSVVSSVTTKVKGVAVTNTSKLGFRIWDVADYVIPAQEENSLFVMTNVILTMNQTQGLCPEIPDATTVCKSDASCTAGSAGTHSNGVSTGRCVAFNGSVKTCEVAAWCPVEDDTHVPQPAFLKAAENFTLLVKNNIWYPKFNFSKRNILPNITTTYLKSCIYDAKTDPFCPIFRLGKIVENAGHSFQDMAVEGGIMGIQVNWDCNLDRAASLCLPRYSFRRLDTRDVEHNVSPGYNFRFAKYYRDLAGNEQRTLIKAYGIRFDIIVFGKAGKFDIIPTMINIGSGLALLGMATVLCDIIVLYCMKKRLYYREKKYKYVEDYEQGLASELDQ

CNC(=O)c1cc(F)c(-c2nc3cc(C)ccn3c2C[C@H]2CN(C(=O)OC)CCO2)c(F)c1 [BLU-5937]
primary endpoint in phase IIa study ([1]; subjects with RUCC): did not reach its desired primary endpoint
IC50 [2]: > 24000 nM
antitussive efficacy and taste disturbances in animal models [3]: antitussive efficacy with a lack of taste disturbances
IC50 [4]: 25 nM

C[C@@H](Cn1c(=O)[nH]/c(=N\c2ccc(Oc3ccccn3)cc2)n(Cc2ccc(Cl)cc2)c1=O)C(=O)O [S-600918]
cough reduction and taste disturbance ([1]; patients with RUCC (n = 31)): reduce cough with a low incidence of taste disturbance
efficacy in treating RUCC patients [1]: shown efficacy

Cc1cnc(-c2cc(O[C@@H]3CCOC3)cc(C(=O)N[C@H](C)c3cnc(C(F)(F)F)nc3)c2)s1 [eliapixant]
half-life [5]: > 24 h
IC50 [6]: 4 nM
IC50 [7]: 23 nM
IC50 [8]: 50000 nM
minimal effective oral dose, reversal of hyperalgesia in CFA-injected paw [9]: 5 mg/kg
half-life [10]: ~2.8 h
IC50 [11]: ~19 nM
vaginal hyperalgesia (AUC of cumulative abdominal contractions), 1 week off drug ([12]; 15 mg/kg oral twice daily weeks 4-5, 6 weeks post-implantation, P < 0.01): significantly decreased vaginal hyperalgesia
vaginal hyperalgesia (AUC of cumulative abdominal contractions), on drug ([12]; 15 mg/kg oral twice daily, 5 weeks post-implantation, P < 0.05): significantly decreased vaginal hyperalgesia
tolerability and taste-related adverse events ([1]; phase IIa and Ph IIb study in patients with RUCC): well tolerated with a low rate of mild taste-related adverse events
efficacy in treating RUCC patients [1]: shown efficacy
number of blue dots on the skin (neurogenic plasma extravasation) [13]: significantly reduced number of blue dots on the skin
receptor occupancy corresponding to plasma exposures at which efficacy (reversal of hyperalgesia > 50%) was observed ([14]; rat CFA model, data not shown): 80%
effect on mechanical hyperalgesia (PWT), low dose ([14]; rat, oral 1 mg/kg, n = 8, P < 0.05): moderate and statistically significant at 2 h post-treatment
effect on mechanical hyperalgesia (PWT), medium dose ([14]; rat, oral 3 mg/kg, n = 8, 2, 4, 6 h, P < 0.05 to 0.0001): robust and significant at each time point of the study
effect on mechanical hyperalgesia (PWT), high dose ([14]; rat, oral 10 mg/kg, n = 8, 2, 4, 6 h, P < 0.05 to 0.0001): robust and significant at each time point of the study
effect on mechanical hyperalgesia (Paw Withdrawal Threshold) ([14]; rat, oral, 1, 3, 10 mg/kg, 24 h after CFA, 2, 4, 6 h post-dose): significantly reduced mechanical hyperalgesia in a dose-dependent manner
IC50 [15]: 50000 nM
IC50 [16]: 50000 nM

COc1cc(C(C)C)c(Oc2cnc(N)nc2N)cc1S(N)(=O)=O [gefapixant]
taste-related AEs, participants ([1]; latest phase III data, RUCC): 58–69%
